Patent US10077309B2, “Compositions and methods for targeting of the surfactant protein A receptor” (The Penn State Research Foundation, priority 2014, dated 2018)

System: IAV infection of macrophages / influenza binding to SP-R210
Format: cell-based, influenza A virus

| Substance | competition with influenza virus for binding to the receptor SP-R210 | block of infection of macrophages with IAV (flow cytometry) |
| --- | --- | --- |
| desialylated SP-A: desialylated surfactant protein A | compete for influenza binding to the same receptor | blocks infection of macrophages with IAV |
| SP-A: human surfactant protein A isolated from therapeutic lung lavage of alveolar proteinosis patients | competitively inhibits binding of the influenza virus to the receptor |  |
